Results on one compound are retold here after patent US20030045580A1, “Ibuprofen containing active agent preparation” (priority 2000, published 2003).

This data set can be described thus: Hardness (radial breaking force) of 200 mg, 9 mm compacts from active ingredient preparation vs physical mixture. The following applies: 200 mg compacts, diameter 9 mm. Format: physicochemical. As for the experimental part: The hardness of the round compacts means the radial breaking force.
Various compositions of the novel active ingredient preparation were compressed under various pressures using a type EKO press supplied by Korsch, Berlin, to give 200 mg compacts with a diameter of 9 mm. For comparison therewith, the physical mixtures (PM) of the same composition were compressed under analogous conditions, and the hardnesses of the produced compacts were compared. Physical mixtures mean the dry mixture of ibuprofen with the particular binder.
In contrast to the purely physical mixtures, the novel ibuprofen-containing active ingredient compositions result, even with low compressive forces, in compacts with hardnesses which are distinctly above the hardnesses of 25 N which are adequate for tablets.

As for `CC(C)Cc1ccc(C(C)C(=O)O)cc1` (stereo not drawn) [0% (pure), 2-(4-isobutylphenyl)propionic acid], the “Hardness with a compressive force of 4.7 to 5.3 kN” value (compressive force 4.7 to 5.3 kN) is reported as 11.0 N. Moreover, the “Hardness with a compressive force of 9.7 to 10.9 kN” value (compressive force 9.7 to 10.9 kN) is reported as 10.8 N. Further, the “Hardness with a compressive force of 20.1 to 21.1 kN” value (compressive force 20.1 to 21.1 kN) was 20.1 N.
